# Results: PMC7104248, “Discovery of Taniborbactam (VNRX-5133): A Broad-Spectrum Serine- and Metallo-β-lactamase Inhibitor for Carbapenem-Resistant Bacterial Infections” (Journal of Medicinal Chemistry, 2019)
# Legend:
# [1] = target: NDM-1 (Klebsiella pneumoniae, UniProt C7C422); assay: biochemical
# [2] = target: IMP-1 (Serratia marcescens, UniProt P52699); assay: β-lactamase inhibition assay, nitrocefin substrate; format: biochemical
# [3] = test system: K. pneumoniae CDC-0066 (OXA-232, OXA-9, TEM-1A, CTX-M-15, OXA-1); assay: MIC, rescue of β-lactams in MDR clinical isolates; format: cell-based; conditions: Klebsiella pneumoniae, read-out: FEP MIC
# [4] = test system: P. aeruginosa CDC-0356 (KPC-2, PDC-42); assay: MIC, rescue of β-lactams in MDR clinical isolates; format: cell-based; conditions: Pseudomonas aeruginosa, read-out: FEP MIC
# [5] = test system: K. pneumoniae UNT-065-1 expressing CTX-M-14; assay: neutropenic mouse lung infection model; format: in vivo; conditions: neutropenic mice
# [6] = test system: K. pneumoniae (CTX-M-14); assay: MIC against the lung model strain; format: cell-based; conditions: Klebsiella pneumoniae
# [7] = test system: K. pneumoniae CDC-0361 (KPC-2, SHV-12, TEM-1); assay: MIC, rescue of β-lactams in MDR clinical isolates; format: cell-based; conditions: Klebsiella pneumoniae; read-out: FEP MIC
# [8] = test system: K. pneumoniae ATCC BAA 1705 (KPC-2); assay: MIC, rescue of β-lactams in MDR clinical isolates; format: cell-based; conditions: Klebsiella pneumoniae, BAA1705; read-out: FEP MIC
# [9] = test system: P. aeruginosa CDC-0457 (VIM); assay: MIC, rescue of β-lactams in MDR clinical isolates; format: cell-based; conditions: Pseudomonas aeruginosa; read-out: FEP MIC
# [10] = test system: K. pneumoniae CDC-0040 (VIM-27, CTX-M-15, SHV-11, OXA-1); assay: MIC, rescue of β-lactams in MDR clinical isolates; format: cell-based; conditions: Klebsiella pneumoniae, read-out: FEP MIC
# [11] = test system: E. coli CDC-0452 (NDM); assay: MIC, rescue of β-lactams in MDR clinical isolates; format: cell-based; conditions: Escherichia coli; read-out: FEP MIC
# [12] = test system: E. coli CDC-0055 (NDM-1, CMY-6, OXA-1); assay: MIC, rescue of β-lactams in MDR clinical isolates; format: cell-based; conditions: Escherichia coli; read-out: FEP MIC
# [13] = test system: E. coli (CTX-M-15); assay: MIC against the urinary tract model strain; format: cell-based; conditions: Escherichia coli
# [14] = test system: E. coli UNT-057-1 expressing CTX-M-15; assay: mouse ascending urinary tract infection model; format: in vivo; conditions: mice, at day 7; BID s.c.; cefepime alone, cefepime/VNRX-5133 16:8, Caz/Avi 16:4 mg/kg/dose
# [15] = target: VIM-2 (Escherichia coli, UniProt Q5U7L7); assay: β-lactamase inhibition assay, nitrocefin substrate; format: biochemical; conditions: in our hands
# Sequence of NDM-1 (C7C422 29-270 limits assumed): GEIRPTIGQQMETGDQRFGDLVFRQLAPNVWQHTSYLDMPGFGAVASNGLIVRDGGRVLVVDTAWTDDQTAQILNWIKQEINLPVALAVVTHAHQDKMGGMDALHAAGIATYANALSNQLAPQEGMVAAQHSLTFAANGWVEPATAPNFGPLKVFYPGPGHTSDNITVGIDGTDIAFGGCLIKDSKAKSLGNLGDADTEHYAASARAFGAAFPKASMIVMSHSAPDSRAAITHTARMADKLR
# Sequence of IMP-1 (P52699 19-246 limits assumed): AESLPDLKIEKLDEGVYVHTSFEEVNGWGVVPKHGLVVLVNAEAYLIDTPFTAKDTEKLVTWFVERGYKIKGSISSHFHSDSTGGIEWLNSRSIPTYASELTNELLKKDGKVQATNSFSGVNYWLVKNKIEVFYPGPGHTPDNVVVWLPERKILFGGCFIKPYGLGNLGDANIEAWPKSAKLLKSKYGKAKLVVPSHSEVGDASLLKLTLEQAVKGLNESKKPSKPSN
smiles,measurement,setting,value
NC(=O)[C@@H]1CC[C@@H]2CN1C(=O)N2OS(=O)(=O)O [avibactam],IC50,[1],> 100 µM
same,IC50,[2],> 100 µM
CO/N=C(\C(=O)N[C@@H]1C(=O)N2C(C(=O)[O-])=C(C[N+]3(C)CCCC3)CS[C@H]12)c1csc(N)n1 [cefepime],MIC,[3],> 128 µg/mL
same,MIC,[4],> 128 µg/mL
same,log10 CFU/lung,"[5]; at 24 h, cefepime alone 32, cefepime/VNRX-5133 32:16, Caz/Avi 32:8 mg/kg s.c. single dose",9.27 ± 0.21 log10 CFU/lung
same,reduction in viable bacterial counts in lung tissue,"[5]; single subcutaneous dose, cefepime 32 mg/kg alone or cefepime/20 32 and 16 mg/kg, 24 h",not effective
same,MIC,[6],64 µg/mL
same,MIC,[7],32 µg/mL
same,MIC,[8],16 µg/mL
same,MIC,[9],16 µg/mL
same,MIC,[10],> 128 µg/mL
same,MIC,[11],64 µg/mL
same,MIC,[12],128 µg/mL
same,MIC,[13],128 µg/mL
same,log10 CFU/kidney,[14],7.25 ± 0.16 log10 CFU/kidney
O=C(O)[C@H]1/C(=C/CO)O[C@@H]2CC(=O)N21 [clavulanic acid],IC50,[1],> 100 µM
same,IC50,[2],> 100 µM
CC(=O)N[C@H]1Cc2cccc(C(=O)O)c2OB1O [compound 1],"inhibition of the MBL VIM-2, in words",[15],micromolar levels
NCc1ccc(CC(=O)N[C@H]2Cc3cccc(C(=O)O)c3OB2O)cc1 [compound 3],"inhibition of the MBL VIM-2, in words",[15],micromolar levels
